Data from patent US5298397A, “Method of assaying d-vanillylmandelic acid” (Yamasa Shoyu Kabushiki Kaisha, priority 1989, dated 1994).

Key:
[1] = tested on: anti-D-VMA antibody; assay: Cross-reactivity of anti-D-VMA monoclonal antibodies with acidic catecholamine metabolites (competitive enzyme immunoassay); assay type: binding, mouse; conditions: reactivity with D-VMA defined as 100%; for Antibody Reactivity (% by weight): from concentration ratios at 50% inhibition on standard curves
Description: Three days after the final booster, spleen cells of the mouse were enucleated and washed with Eagle's minimum essential medium (MEM). […] The spleen cells and P3 U1 were mixed at 10:1 and the mixture was centrifuged. To the pellets obtained was gradually added 1 ml of an MEM solution containing 50% polyethylene glycol (PEG) 1000 to cause cell fusion. […] 0.1 ml of the suspension was apportioned to each well of a 96-well microplate. One day thereafter, 0.1 ml of HAT medium was added. […] Into each well of the 96-well microplate previously coated with HSA and the 96-well microplate coated with D-VMA-HSA (10 μg/ml) was added […] of the above diluted culture supernatant. […] After one hour at room temperature, by the use of the same reagent as in the case of the ELISA method as described above except for using O-phenylenediamine as the chromogenic reagent, enzyme immunoassay was practiced according to the competitive reaction method.

[2] = tested on: peroxidase-labeled anti-D-VMA antibody; assay: Competitive enzyme immunoassay of D-VMA or L-VMA solutions with peroxidase-labeled anti-D-VMA antibody on solid-phase antigen plate; assay type: binding, mouse; conditions: conclusion drawn from Table 2
Description: A volume of 50 μl of the D-VMA solution or L-VMA solution as described above and 50 μl of the peroxidase-labeled anti-D-VMA antibody solution were added into each well, and reaction was carried out stationarily at room temperature for one hour.
After reaction, the solution in each well was discarded and each well was washed with a 0.9% aqueous sodium chloride solution.
After washing, 100 μl of a substrate solution (containing 1 mM H2 O2 and […] TMBZ) was added and left standing for 25 minutes. A volume of 100 μl of a reaction stopping solution (a 2N sulfuric acid solution) was added, and absorbance at 450 nm was measured by the use of a 96-well microplate reader MPR-A4 (produced by Toso K. K.).
After measurement, from the calibration curve prepared by the use of DL-VMA of a known concentration as a standard substance (FIG. 1), the VMA concentration corresponding to the above absorbance was determined.

Row | Compound | Antibody Reactivity (% by weight) [1] | reactivity of the labeled antibody [2] | cross-reactivity of the antibody reagent [1]
1 | COc1cc(C(O)C(=O)O)ccc1O (racemic) [DL-VMA, vanillylmandelic acid] | 50 % by weight |  | 
2 | O=C(O)C(O)c1ccc(O)c(O)c1 (stereo not shown) [3,4-Dihydroxymandelic acid (DOMA), 3,4-Dihydroxymandelic acid] | 4 % by weight |  | 
3 | COc1cc([C@@H](O)C(=O)O)ccc1O [D-VMA, D-vanillylmandelic acid] | 100 % by weight |  | 
4 | COc1cc(CC(=O)C(=O)O)ccc1O [Vanillylpyruvic acid] | 4 % by weight |  | 
5 | COc1cc(CC(=O)O)ccc1O [Homovanilic acid (HVA), Homovanilic acid] | < 0.01 % by weight |  | 
6 | CNCC(O)c1ccc(O)c(OC)c1 (stereo not shown) [Metanepherine] | < 0.01 % by weight |  | 
7 | COc1cc([C@H](O)C(=O)O)ccc1O [L-VMA] | < 1 % by weight | substantially no reactivity | ≤ 1%
8 | O=C(O)Cc1ccc(O)c(O)c1 [3,4-Dihydroxyphenylacetic acid (DOPAC), 3,4-Dihydroxyphenylacetic acid] | < 0.01 % by weight |  | 
